Reference: PubChem BioAssay AID743420 (The Scripps Research Institute Molecular Screening Center, 2014)
The source made the active and inactive calls. No rule for the calls is given here.

target: Sphingosine 1-phosphate receptor 5 (Homo sapiens) (UniProt Q9H228); experiment: agonism at human S1PR5 – cell-based, FRET, dose response, counter-screen for S1PR3 antagonist project, late-stage follow-up (AID 743420); conditions: S1P5 cell-based FRET assay, agonist mode
Sequence (Q9H228 whole entry, looked up): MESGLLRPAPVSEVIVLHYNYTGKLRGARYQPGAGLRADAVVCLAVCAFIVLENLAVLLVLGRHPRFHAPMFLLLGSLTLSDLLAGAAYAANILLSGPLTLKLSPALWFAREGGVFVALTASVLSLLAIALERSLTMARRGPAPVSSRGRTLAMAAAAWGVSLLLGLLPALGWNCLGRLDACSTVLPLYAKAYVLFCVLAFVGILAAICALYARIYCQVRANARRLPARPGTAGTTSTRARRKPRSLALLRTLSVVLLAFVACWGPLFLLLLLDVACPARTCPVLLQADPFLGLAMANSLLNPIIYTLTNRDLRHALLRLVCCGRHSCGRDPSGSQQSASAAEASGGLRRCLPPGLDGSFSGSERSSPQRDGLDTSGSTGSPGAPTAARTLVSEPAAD

Row | EC50 | Structure (SMILES)
1 | > 28.2 µM (inactive) | O=C(NC(c1cccc(Cl)c1)c1nc(-c2ccccc2)no1)c1cccc(Cl)c1 (configuration not stated)
2 | > 28.2 µM (inactive) | CCc1ccc(C(NC(=O)c2cccc(Cl)c2)c2nc(-c3ccccc3)no2)cc1 (configuration not stated)
3 | > 28.2 µM (inactive) | O=C(NC(c1ccc(Cl)cc1)c1nc(-c2ccccc2)no1)c1cccc(Cl)c1 (configuration not stated)
4 | > 28.2 µM (inactive) | Cc1ccc(C(NC(=O)c2cccc(Cl)c2)c2nc(-c3ccccc3)no2)cc1 (configuration not stated)
5 | > 28.2 µM (inactive) | O=C(NC(c1ccc(Cl)cc1)c1nc(-c2ccccn2)no1)c1cccc(Cl)c1 (configuration not stated)
6 | > 28.2 µM (inactive) | O=C(NC(c1ccc(Cl)cc1)c1nc(-c2ccccc2)no1)c1ccc(Cl)c(Br)c1 (configuration not stated)
7 | > 28.2 µM (inactive) | O=C(NC(c1ccc(Cl)cc1)c1nc(-c2ccccc2)no1)c1cccc(Br)c1 (configuration not stated)
8 | > 28.2 µM (inactive) | O=C(NC(c1ccc(Cl)c(Cl)c1)c1nc(-c2ccccc2)no1)c1cccc(Cl)c1 (configuration not stated)
9 | > 28.2 µM (inactive) | O=C(NC(c1cccc(Cl)c1)c1nc(-c2ccccc2)no1)c1ccc(Cl)c(Cl)c1 (configuration not stated)
10 | > 28.2 µM (inactive) | O=C(NC(c1ccc(Cl)cc1)c1nc(-c2ccccc2)no1)c1ccc(Cl)c(Cl)c1 (configuration not stated)
11 | > 28.2 µM (inactive) | O=C(NC(c1ccc(Cl)cc1)c1nc(-c2cccc(Cl)c2)no1)c1cccc(Cl)c1 (configuration not stated)
12 | > 28.2 µM (inactive) | O=C(NC(c1ccc(Cl)c(Cl)c1)c1nc(-c2ccccc2)no1)c1ccc(Cl)cc1 (configuration not stated)

The next lines start with the compound.

Row | Structure (SMILES) | EC50
13 | O=C(NC(c1ccc(Cl)c(Cl)c1)c1nc(-c2ccccc2)no1)c1ccc(Cl)c(Cl)c1 (configuration not stated) | > 28.2 µM (inactive)
14 | Cc1ccc(C(=O)NC(c2ccccc2)c2nc(-c3ccccc3)no2)cc1 (configuration not stated) | > 28.2 µM (inactive)
15 | O=C(NC(c1ccc(Br)cc1)c1nc(-c2ccccc2)no1)c1ccc(Cl)c(Cl)c1 (configuration not stated) | > 28.2 µM (inactive)
16 | COc1ccc(C(=O)NC(c2ccccc2)c2nc(-c3ccccc3)no2)cc1 (configuration not stated) | > 28.2 µM (inactive)
17 | O=C(NC(c1ccccc1)c1nc(-c2ccccc2)no1)c1cccc(Br)c1 (configuration not stated) | > 28.2 µM (inactive)
18 | O=C(NC(c1cccc(Cl)c1)c1nc(-c2ccccc2)no1)c1cc(Cl)cc(Cl)c1 (configuration not stated) | > 28.2 µM (inactive)
19 | O=C(NC(c1nc(-c2ccccc2)no1)C1CCOCC1)c1ccc(Cl)c(Cl)c1 (configuration not stated) | > 28.2 µM (inactive)
20 | O=C(NC(Cc1ccccc1)c1nc(-c2ccccc2)no1)c1cccc(Cl)c1 (configuration not stated) | > 28.2 µM (inactive)
21 | N#Cc1ccc(C(=O)NC(c2ccc(Cl)c(Cl)c2)c2nc(-c3ccccc3)no2)cc1 (configuration not stated) | > 28.2 µM (inactive)
22 | O=C(NC(c1ccc(Cl)c(Cl)c1)c1nc(-c2ccccc2)no1)c1ccccc1 (configuration not stated) | > 28.2 µM (inactive)
23 | O=C(NC(c1ccccc1)c1nc(-c2ccccc2)no1)c1cccc(Cl)c1 (configuration not stated) | > 28.2 µM (inactive)
24 | O=C(NC(c1ccccc1)c1nc(-c2ccccc2)no1)c1ccc(Cl)cc1 (configuration not stated) | > 28.2 µM (inactive)
25 | O=C(NC(c1nc(-c2ccccc2)no1)C1CCCCC1)c1ccc(Cl)c(Cl)c1 (configuration not stated) | > 28.2 µM (inactive)
26 | O=C(NC(c1ccccc1)c1nc(-c2ccccc2)no1)c1cccc(Cl)n1 (configuration not stated) | > 28.2 µM (inactive)
27 | O=C(c1cccc(Cl)c1)N(CCO)C(c1ccc(Cl)c(Cl)c1)c1nc(-c2ccccc2)no1 (configuration not stated) | > 28.2 µM (inactive)
